Test results from paper PMC4556830, “The Effect of MGCD0103 on CYP450 Isoforms Activity of Rats by Cocktail Method” (BioMed Research International, 2015).

Columns and labels:
[1] = system: CYP2C11; experiment: Cocktail method, tolbutamide probe: effect of MGCD0103 on CYP2C11 activity; assay type: in vivo, rat
Method: (§1) Forty rats (220 ± 20 g) were randomly divided into four different dosages of MGCD0103 groups (Low group, Medium group, High group, and control group with 10 rats in each group). MGCD0103 was dissolved in corn oil as suspension at three different concentrations (20, 40, and 80 mg/mL). Three different MGCD0103 groups (Low group, Medium group, and High group) were respectively given MGCD0103 20, 40, and 80 mg/kg one time by intragastric administration at every morning and last for 7 days. Control group were given saline by same administration method.
(§2) Blood (0.3 mL) samples were collected into heparinized 1.5 mL polythene tubes from the tail vein at 0.0833, 0.5, 1, 2, 3, 4, 6, 8, 12, 24, and 48 h after intragastric administration of six probe drugs. 100 μL of plasma was obtained from blood sample after centrifugation at 4000 g for 10 min. In a 1.5 mL centrifuge tube, 200 μL of acetonitrile (containing 50 ng/mL IS) was added into 100 μL of collected plasma sample. After vortex-mixing for 1.0 min, the sample was centrifuged at 13000 g for 15 min. Then supernatant (2 μL) was injected into the UPLC-MS/MS system for analysis.
(§3) Concentration of plasma probe drugs versus time was analyzed by Version 3.0 Data Analysis System (Wenzhou Medical University, China). The main pharmacokinetic parameters of the MGCD0103 group and control group were analyzed by SPSS l8.0 statistical software.

[2] = target: T1, CYP1A2 (Rattus norvegicus, UniProt P04799); experiment: Cocktail method, phenacetin probe: effect of MGCD0103 on CYP1A2 activity; assay type: in vivo; conditions: 7-day intragastric MGCD0103 20, 40, 80 mg/kg
T1 construct: we investigated the effects of 7-day intragastric administration of MGCD0103 on the activity of CYP enzymes in vivo; from tissue; host or cells: living rats (in vivo)
T1 sequence (P04799 1-513): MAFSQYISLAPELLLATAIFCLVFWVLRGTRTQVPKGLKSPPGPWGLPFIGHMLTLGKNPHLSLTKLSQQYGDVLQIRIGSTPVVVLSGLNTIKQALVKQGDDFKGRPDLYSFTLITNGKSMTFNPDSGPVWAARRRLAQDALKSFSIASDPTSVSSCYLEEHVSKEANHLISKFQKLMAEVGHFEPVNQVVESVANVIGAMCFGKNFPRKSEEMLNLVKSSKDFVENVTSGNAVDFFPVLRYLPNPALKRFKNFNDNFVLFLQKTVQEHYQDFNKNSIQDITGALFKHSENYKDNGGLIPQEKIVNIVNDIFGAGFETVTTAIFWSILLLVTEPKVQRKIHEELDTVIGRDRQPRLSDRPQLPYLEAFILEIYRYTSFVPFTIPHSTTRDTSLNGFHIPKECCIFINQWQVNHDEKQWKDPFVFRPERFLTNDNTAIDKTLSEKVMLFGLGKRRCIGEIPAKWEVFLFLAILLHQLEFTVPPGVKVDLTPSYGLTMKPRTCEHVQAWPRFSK
Method: as §1, §2, §3

[3] = target: T2, CYP2B1 (Rattus norvegicus, UniProt P00176); experiment: Cocktail method, bupropion probe: effect of MGCD0103 on CYP2B1 activity; assay type: in vivo; conditions: 7-day intragastric MGCD0103 20, 40, 80 mg/kg
T2 construct: we investigated the effects of 7-day intragastric administration of MGCD0103 on the activity of CYP enzymes in vivo; from tissue; host or cells: living rats (in vivo)
T2 sequence (P00176 1-491): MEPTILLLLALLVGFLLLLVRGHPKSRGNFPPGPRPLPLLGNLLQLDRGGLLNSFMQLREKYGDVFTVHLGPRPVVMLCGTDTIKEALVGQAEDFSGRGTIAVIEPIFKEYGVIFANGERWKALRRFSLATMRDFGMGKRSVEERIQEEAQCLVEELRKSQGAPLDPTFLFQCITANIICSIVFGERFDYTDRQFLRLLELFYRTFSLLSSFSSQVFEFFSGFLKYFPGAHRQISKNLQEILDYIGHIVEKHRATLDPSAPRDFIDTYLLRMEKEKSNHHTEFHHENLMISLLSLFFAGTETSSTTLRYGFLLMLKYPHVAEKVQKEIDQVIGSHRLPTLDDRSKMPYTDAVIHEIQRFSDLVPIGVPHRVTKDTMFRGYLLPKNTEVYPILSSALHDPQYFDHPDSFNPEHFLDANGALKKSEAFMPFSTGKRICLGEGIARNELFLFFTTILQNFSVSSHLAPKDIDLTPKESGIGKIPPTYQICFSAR
Method: as §1, §2, §3

[4] = target: T3, CYP2D4 (Rattus norvegicus, UniProt Q64680); experiment: Cocktail method, metoprolol probe: effect of MGCD0103 on CYP2D4 activity; assay type: in vivo; conditions: 7-day intragastric MGCD0103 20, 40, 80 mg/kg
T3 construct: we investigated the effects of 7-day intragastric administration of MGCD0103 on the activity of CYP enzymes in vivo; from tissue; host or cells: living rats (in vivo)
T3 sequence (Q64680 1-500): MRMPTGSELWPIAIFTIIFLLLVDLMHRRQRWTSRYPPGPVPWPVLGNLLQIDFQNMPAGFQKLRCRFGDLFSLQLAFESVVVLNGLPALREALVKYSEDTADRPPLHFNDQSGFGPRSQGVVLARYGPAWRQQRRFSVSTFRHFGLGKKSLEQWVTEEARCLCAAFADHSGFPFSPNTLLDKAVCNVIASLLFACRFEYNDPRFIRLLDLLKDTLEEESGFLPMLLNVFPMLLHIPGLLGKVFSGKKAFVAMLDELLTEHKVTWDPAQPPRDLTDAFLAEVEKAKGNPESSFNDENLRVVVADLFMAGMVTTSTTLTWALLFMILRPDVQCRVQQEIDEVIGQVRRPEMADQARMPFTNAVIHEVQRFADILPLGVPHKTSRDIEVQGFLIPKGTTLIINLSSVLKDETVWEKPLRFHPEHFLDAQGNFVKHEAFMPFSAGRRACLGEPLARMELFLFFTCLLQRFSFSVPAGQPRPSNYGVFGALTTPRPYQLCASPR
Method: as §1, §2, §3

[5] = target: T4, CYP3A2 (Rattus norvegicus, UniProt P05183); experiment: Cocktail method, testosterone probe: effect of MGCD0103 on CYP3A2 activity; assay type: in vivo; conditions: 7-day intragastric MGCD0103 20, 40, 80 mg/kg
T4 construct: we investigated the effects of 7-day intragastric administration of MGCD0103 on the activity of CYP enzymes in vivo; from tissue; host or cells: living rats (in vivo)
T4 sequence (P05183 1-504): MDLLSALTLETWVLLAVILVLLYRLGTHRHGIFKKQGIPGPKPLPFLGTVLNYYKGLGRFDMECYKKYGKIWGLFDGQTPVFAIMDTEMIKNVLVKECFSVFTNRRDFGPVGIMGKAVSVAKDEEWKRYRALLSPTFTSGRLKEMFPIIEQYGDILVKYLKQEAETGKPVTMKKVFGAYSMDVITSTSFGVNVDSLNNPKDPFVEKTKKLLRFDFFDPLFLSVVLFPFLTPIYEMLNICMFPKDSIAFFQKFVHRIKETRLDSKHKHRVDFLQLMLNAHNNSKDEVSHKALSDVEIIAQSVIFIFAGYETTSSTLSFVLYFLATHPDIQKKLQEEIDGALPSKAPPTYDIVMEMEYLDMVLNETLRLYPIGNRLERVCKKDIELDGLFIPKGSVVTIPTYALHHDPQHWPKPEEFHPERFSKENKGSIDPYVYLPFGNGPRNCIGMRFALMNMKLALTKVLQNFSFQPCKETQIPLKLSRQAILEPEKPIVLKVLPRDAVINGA
Method: as §1, §2, §3

[6] = system: liver; experiment: Liver histopathology (HE staining) after MGCD0103; assay type: in vivo, rat
Method: After pharmacokinetic properties analysis, rats were deeply anesthetized with 10% chloral hydrate (i.p., […]). The livers of control group and MGCD0103 treated groups were rapidly isolated and immersed in freshly prepared 4% w/v formaldehyde (0.1 M phosphate buffer, pH 7.2) for 48 h and then embedded in paraffin. Then 5 μm thick histologic sections were prepared and stained with routine HE method (hematoxylin and eosin). The morphological changes of liver were observed under light microscope.

Nc1ccccc1NC(=O)c1ccc(CNc2nccc(-c3cccnc3)n2)cc1 [MGCD0103, Mocetinostat]
effect on metabolism of tolbutamide ([1]; 7-day intragastric administration of MGCD0103, high dosage (80 mg/kg), rat): slightly induces | effect on activities of CYP2C11 ([1]; continuous 7-day intragastric administration of MGCD0103, rats): slightly induces | effect on activity of CYP1A2 enzyme [2]: not able to induce or inhibit | effect on activity of CYP2B1 enzyme [3]: not able to induce or inhibit | effect on activity of CYP2D4 enzyme [4]: not able to induce or inhibit | effect on activity of CYP3A2 enzyme [5]: not able to induce or inhibit | hepatotoxicity (pathological changes of liver) ([6]; 20, 40, 80 mg/kg i.g. 7 days, probe drugs also given): hepatotoxic and its toxicity is dose-dependent | morphological changes of liver ([6]; high dose group, 80 mg/kg i.g. 7 days): liver cells with steatosis and small, atrophy, hyperchromatic karyopyknosis | morphological changes of liver ([6]; low dose group, 20 mg/kg i.g. 7 days): liver cells become slightly edematous | morphological changes of liver ([6]; middle dose group, 40 mg/kg i.g. 7 days): liver cells experienced extensive fatty changes
